Earlier results in US8440796B2, “Lenalidomide and thalidomide immunoassays” (Saladax Biomedical Inc., priority 2010, dated 2013).
Where two headings read alike, the source gives them in different places.

Legend:
[1] = HIV patients, phase I study
[2] = healthy subjects
[3] = patients with central nervous system tumors

O=C1CCC(N2C(=O)c3ccccc3C2=O)C(=O)N1 (stereo not drawn) [thalidomide]
half-life time t1/2 [1]: 5.9 ± 2.3 h
maximum drug concentration Cmax [1]: 2800 ± 2600 ng/mL
variability in Cmax [2]: up to 52%
variability in t1/2 [2]: up to 37%

Nc1cccc2c1CN(C1CCC(=O)NC1=O)C2=O (stereo not drawn) [lenalidomide]
variability in Cmax [3]: up to 78%
variability in t1/2 [3]: up to 122%
